This experiment addresses T1, PDE-4B2 (Homo sapiens, UniProt Q07343).
T1 construct: gene PDE4B; human recombinant PDE-4B2 (BPS Bioscience no. 60042)
Put plainly: PDELight HTS cAMP phosphodiesterase luminescence assay. The class given is biochemical.

What is called IC50 is the midpoint of a concentration-inhibition curve. Low values mean higher potency, high ones lower potency.

T1 sequence (Q07343 1-564 isoform Q07343-2): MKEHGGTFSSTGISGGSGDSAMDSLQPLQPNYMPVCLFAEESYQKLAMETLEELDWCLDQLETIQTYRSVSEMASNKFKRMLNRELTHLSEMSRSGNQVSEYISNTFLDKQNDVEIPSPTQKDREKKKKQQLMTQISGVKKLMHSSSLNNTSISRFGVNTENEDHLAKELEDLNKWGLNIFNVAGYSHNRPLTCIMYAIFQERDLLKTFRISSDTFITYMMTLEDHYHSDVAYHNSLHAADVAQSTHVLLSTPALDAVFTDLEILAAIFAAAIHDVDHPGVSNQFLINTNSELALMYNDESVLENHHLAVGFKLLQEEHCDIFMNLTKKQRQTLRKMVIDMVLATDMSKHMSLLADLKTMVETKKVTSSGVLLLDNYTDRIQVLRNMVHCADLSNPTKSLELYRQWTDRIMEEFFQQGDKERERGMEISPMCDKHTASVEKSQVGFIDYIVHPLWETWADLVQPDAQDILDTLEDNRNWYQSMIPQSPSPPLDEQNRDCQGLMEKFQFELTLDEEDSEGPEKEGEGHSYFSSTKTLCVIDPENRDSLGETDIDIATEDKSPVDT

On to lysoquinone-TH1 [compound 7], for which the IC50 lay in the range of 10 to 20 µM.

The values are drawn from publication PMC6164072, “Lysoquinone-TH1, a New Polyphenolic Tridecaketide Produced by Expressing the Lysolipin Minimal PKS II in Streptomyces albus” (Antibiotics, 2018).
